Test results from US10138255B2, “Piperazine derivatives as HIV protease inhibitors” (Merck Sharp & Dohme Corp., priority 2014, dated 2018).

System: HIV-1 (H9IIIB strain)
Assay: Cell-Based HIV Infection Assay Using a Reporter (MT4-GFP cells)
Conditions: Human immunodeficiency virus 1, inflection point (IP) of viral growth inhibition; MT4-GFP cells infected with HIV-1 H9IIIB; 50% normal human serum; mean of at least two independent experiments; read-out: Cell Based IP (50% NHS)
Procedure, shortened: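 Inflection point from a 4-parameter curve of % viral growth inhibition, normalised to DMSO and triple-drug controls, using the 48 h/24 h ratio of GFP-positive cells (R0). MT4-GFP cells pre-infected 24 h with HIV-1 H9IIIB at low MOI; compounds tested in 50% normal human serum, 0.4% DMSO; mean of ≥2 experiments.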

| Structure (SMILES) | EC50 [nM] |
| --- | --- |
| COC(=O)N[C@H](C(=O)N[C@H]1CCC[C@@H]1CC[C@H]1CN[C@@H]2CCCS(=O)(=O)N1C2)[C@@H](c1ccc(F)cc1)c1cc(F)cc(F)c1 [Example 56, methyl [(1S,2S)-2-(3,5-difluorophenyl)-1-{[(1S,2R)-2-{2-[(6R,9S)-2,2-dioxido-2-thia-1,7-diazabicyclo[4.3.1]dec-9-yl]ethyl}cyclopentyl]carbamoyl}-2-(4-fluorophenyl)ethyl]carbamate] | 24 |
| COC(=O)N[C@H](C(=O)Nc1cccc(F)c1CCC1CNC2CCCS(=O)(=O)N1C2)[C@@H](c1ccc(F)cc1)C12CC(C1)C2 (stereo partly drawn) [Example 87, methyl [(1S,2R)-2-bicyclo[1.1.1]pent-1-yl-1-({2-[2-(2,2-dioxido-2-thia-1,7-diazabicyclo[4.3.1]dec-9-yl)ethyl]-3-fluorophenyl}carbamoyl)-2-(4-fluorophenyl)ethyl]carbamate] | 130 |
| COC(=O)N[C@H](C(=O)Nc1cccc(F)c1CCC1CNC2CCCS(=O)(=O)N1C2)[C@H](c1ccc(F)cc1)C1CCC(F)(F)CC1 (stereo partly drawn) [Example 62, methyl [(1S,2S)-2-(4,4-difluorocyclohexyl)-1-({2-[2-(2,2-dioxido-2-thia-1,7-diazabicyclo[4.3.1]dec-9-yl)ethyl]-3-fluorophenyl}carbamoyl)-2-(4-fluorophenyl)ethyl]carbamate] | 190 |
| COC(=O)N[C@H](C(=O)Nc1cccc(F)c1CC[C@H]1CN[C@@H]2CCCS(=O)(=O)N1C2)[C@@H](c1ccc(Cl)cc1)[C@H]1CCO[C@@H](CC(F)(F)F)C1 [Example 8, Methyl ((1R,2S)-1-(4-chlorophenyl)-3-((2-(2-((6R,9S)-2,2-dioxido-2-thia-1,7-diazabicyclo[4.3.1]decan-9-yl)ethyl)-3-fluorophenyl)amino)-3-oxo-1-((2R,4S)-2-(2,2,2-trifluoroethyl)tetrahydro-2H-pyran-4-yl)propan-2-yl)carbamate] | 8.7 |
| CCOC(=O)N1CCC(c2ccc(Cl)cc2)([C@H](NC(=O)OC)C(=O)Nc2cccc(F)c2CC[C@H]2CN[C@@H]3CCCS(=O)(=O)N2C3)CC1 [Example 255, ethyl 4-(4-chlorophenyl)-4-{(1S)-2-[(2-{2-[(6R,9S)-2,2-dioxido-2-thia-1,7-diazabicyclo[4.3.1]dec-9-yl]ethyl}-3-fluorophenyl)amino]-1-[(methoxycarbonyl)amino]-2-oxoethyl}piperidine-1-carboxylate] | 18 |
| N[C@H](C(=O)N[C@H]1CCC[C@@H]1CC[C@H]1CN[C@@H]2CCCS(=O)(=O)N1C2)[C@H](c1cncc(C(F)(F)F)c1)c1ccc(Cl)c(F)c1 [Example 76, (βS)-4-chloro-N-[(1S,2R)-2-{2-[(6R,9S)-2,2-dioxido-2-thia-1,7-diazabicyclo[4.3.1]dec-9-yl]ethyl}cyclopentyl]-3-fluoro-β-[5-(trifluoromethyl)pyridin-3-yl]-L-phenylalaninamide] | 30 |
| CCO[C@H]1CC[C@H]([C@H](c2ccc(Cl)cc2)[C@H](N)C(=O)Nc2cccc(F)c2CC[C@H]2CN[C@@H]3CCCS(=O)(=O)N2C3)CC1 [Example 6, (2S,3R)-2-amino-3-(4-chlorophenyl)-N-(2-(2-((6R,9S)-2,2-dioxido-2-thia-1,7-diazabicyclo[4.3.1]decan-9-yl)ethyl)-3-fluorophenyl)-3-((1r,4R)-4-ethoxycyclohexyl)propanamide] | 6.2 |
| COC(=O)N[C@H](C(=O)Nc1cccc(F)c1CC[C@H]1CN[C@@H]2CCCS(=O)(=O)N1C2)C1(c2ccc(Cl)cc2)CCN(S(C)(=O)=O)CC1 [Example 175, methyl {(1S)-1-[4-(4-chlorophenyl)-1-(methylsulfonyl)piperidin-4-yl]-2-[(2-{2-[(6R,9S)-2,2-dioxido-2-thia-1,7-diazabicyclo[4.3.1]dec-9-yl]ethyl}-3-fluorophenyl)amino]-2-oxoethyl}carbamate] | 120 |
